Patent publication US20140348819A1, “Methods of Treating Cancer” (Dana-Farber Cancer Institute, Inc., priority 2011, published 2014)

What was measured:
[1] = test system: six V600E BRAF melanoma cell lines; assay: Screening of recombinant RTK ligands for ability to confer resistance to BRAFi (PLX4720) or MEKi (PD184352) (Table 4); format: cell-based, human; design: ability of recombinant RTK ligand to confer resistance / ability of recombinant RTK ligand to confer resistance (screening value): scale not given here
Outline: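 Six V600E BRAF melanoma lines treated with PLX4720 or PD184352 after addition of 22 recombinant RTK ligands, scored for drug resistance. Activation of selected RTKs confirmed by western blotting and high-throughput tyrosine kinase phosphorylation profiling.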

[2] = test system: pERK/pAKT; assay: High-throughput western analysis of pERK/pAKT re-activation by RTK ligands under BRAFi/MEKi; format: cell-based, human; conditions: under BRAFi (PLX4720); after 1 hour of cytokine treatment; six V600E BRAF melanoma cell lines

In the case of PDGF-BB: RTK ligand of PDGFRB, the “ability of recombinant RTK ligand to confer resistance” value (from here on “ability of recombinant RTK ligand”) ([1]; A2058, PD184352 - 1 uM, ligand 0.4 ng/ml) is reported as 1.07, the “ability of recombinant RTK ligand” value ([1]; A2058, PD184352 - 1 uM, ligand 1.6 ng/ml) is reported as 0.98 and the “ability of recombinant RTK ligand” value ([1]; A2058, PD184352 - 1 uM, ligand 6.25 ng/ml) is reported as 1.10. The “ability of recombinant RTK ligand” value ([1]; A2058, PD184352 - 1 uM, ligand 25 ng/ml) was 1.09, the “ability of recombinant RTK ligand” value ([1]; A2058, PD184352 - 1 uM, ligand 100 ng/ml) was 1.02 and the “ability of recombinant RTK ligand” value ([1]; A2058, PLX4720 - 2 uM, ligand 0.4 ng/ml) was 1.07. For the same substance, the “ability of recombinant RTK ligand” value ([1]; A2058, PLX4720 - 2 uM, ligand 1.6 ng/ml) was 0.98, the “ability of recombinant RTK ligand” value ([1]; A2058, PLX4720 - 2 uM, ligand 6.25 ng/ml) was 1.07 and the “ability of recombinant RTK ligand” value ([1]; A2058, PLX4720 - 2 uM, ligand 25 ng/ml) was 1.12. The “ability of recombinant RTK ligand” value ([1]; A2058, PLX4720 - 2 uM, ligand 100 ng/ml) was 1.07, the “ability of recombinant RTK ligand” value ([1]; C32, PD184352 - 1 uM, ligand 0.4 ng/ml) was 1.06 and the “ability of recombinant RTK ligand” value ([1]; C32, PD184352 - 1 uM, ligand 1.6 ng/ml) was 0.97. For the same substance, the “ability of recombinant RTK ligand” value ([1]; C32, PD184352 - 1 uM, ligand 6.25 ng/ml) was 1.08, the “ability of recombinant RTK ligand” value ([1]; C32, PD184352 - 1 uM, ligand 25 ng/ml) was 1.10 and the “ability of recombinant RTK ligand” value ([1]; C32, PD184352 - 1 uM, ligand 100 ng/ml) was 0.96. The “ability of recombinant RTK ligand” value ([1]; C32, PLX4720 - 2 uM, ligand 0.4 ng/ml) was 0.96, the “ability of recombinant RTK ligand” value ([1]; C32, PLX4720 - 2 uM, ligand 1.6 ng/ml) was 0.97 and the “ability of recombinant RTK ligand” value ([1]; C32, PLX4720 - 2 uM, ligand 6.25 ng/ml) was 1.04. The “ability of recombinant RTK ligand” value ([1]; C32, PLX4720 - 2 uM, ligand 25 ng/ml) was 0.97, the “ability of recombinant RTK ligand” value ([1]; C32, PLX4720 - 2 uM, ligand 100 ng/ml) was 0.89 and the “ability of recombinant RTK ligand” value ([1]; Colo 829, PD184352 - 1 uM, ligand 0.4 ng/ml) was 1.04. The “ability of recombinant RTK ligand” value ([1]; Colo 829, PD184352 - 1 uM, ligand 1.6 ng/ml) was 1.06, the “ability of recombinant RTK ligand” value ([1]; Colo 829, PD184352 - 1 uM, ligand 6.25 ng/ml) was 1.10 and the “ability of recombinant RTK ligand” value ([1]; Colo 829, PD184352 - 1 uM, ligand 25 ng/ml) was 1.09. For the same substance, the “ability of recombinant RTK ligand” value ([1]; Colo 829, PD184352 - 1 uM, ligand 100 ng/ml) was 0.98, the “ability of recombinant RTK ligand” value ([1]; Colo 829, PLX4720 - 2 uM, ligand 0.4 ng/ml) was 1.01 and the “ability of recombinant RTK ligand” value ([1]; Colo 829, PLX4720 - 2 uM, ligand 1.6 ng/ml) was 1.03. For the same substance, the “ability of recombinant RTK ligand” value ([1]; Colo 829, PLX4720 - 2 uM, ligand 6.25 ng/ml) was 1.06, the “ability of recombinant RTK ligand” value ([1]; Colo 829, PLX4720 - 2 uM, ligand 25 ng/ml) was 1.06 and the “ability of recombinant RTK ligand” value ([1]; Colo 829, PLX4720 - 2 uM, ligand 100 ng/ml) was 1.01. The “ability of recombinant RTK ligand” value ([1]; G-361, PD184352 - 1 uM, ligand 0.4 ng/ml) was 1.00, the “ability of recombinant RTK ligand” value ([1]; G-361, PD184352 - 1 uM, ligand 1.6 ng/ml) was 0.89 and the “ability of recombinant RTK ligand” value ([1]; G-361, PD184352 - 1 uM, ligand 6.25 ng/ml) was 0.99. The “ability of recombinant RTK ligand” value ([1]; G-361, PD184352 - 1 uM, ligand 25 ng/ml) was 0.98, the “ability of recombinant RTK ligand” value ([1]; G-361, PD184352 - 1 uM, ligand 100 ng/ml) was 0.96 and the “ability of recombinant RTK ligand” value ([1]; G-361, PLX4720 - 2 uM, ligand 0.4 ng/ml) was 0.93. For the same substance, the “ability of recombinant RTK ligand” value ([1]; G-361, PLX4720 - 2 uM, ligand 1.6 ng/ml) was 0.90, the “ability of recombinant RTK ligand” value ([1]; G-361, PLX4720 - 2 uM, ligand 6.25 ng/ml) was 0.98 and the “ability of recombinant RTK ligand” value ([1]; G-361, PLX4720 - 2 uM, ligand 25 ng/ml) was 1.00. The “ability of recombinant RTK ligand” value ([1]; G-361, PLX4720 - 2 uM, ligand 100 ng/ml) was 1.00, the “ability of recombinant RTK ligand” value ([1]; SK-MEL-5, PD184352 - 1 uM, ligand 0.4 ng/ml) was 1.03 and the “ability of recombinant RTK ligand” value ([1]; SK-MEL-5, PD184352 - 1 uM, ligand 1.6 ng/ml) was 1.08. For the same substance, the “ability of recombinant RTK ligand” value ([1]; SK-MEL-5, PD184352 - 1 uM, ligand 6.25 ng/ml) was 1.04, the “ability of recombinant RTK ligand” value ([1]; SK-MEL-5, PD184352 - 1 uM, ligand 25 ng/ml) was 1.15 and the “ability of recombinant RTK ligand” value ([1]; SK-MEL-5, PD184352 - 1 uM, ligand 100 ng/ml) was 1.16. For the same substance, the “ability of recombinant RTK ligand” value ([1]; SK-MEL-5, PLX4720 - 2 uM, ligand 0.4 ng/ml) was 0.87, the “ability of recombinant RTK ligand” value ([1]; SK-MEL-5, PLX4720 - 2 uM, ligand 1.6 ng/ml) was 0.98 and the “ability of recombinant RTK ligand” value ([1]; SK-MEL-5, PLX4720 - 2 uM, ligand 6.25 ng/ml) was 1.02. For the same substance, the “ability of recombinant RTK ligand” value ([1]; SK-MEL-5, PLX4720 - 2 uM, ligand 25 ng/ml) was 1.16, the “ability of recombinant RTK ligand” value ([1]; SK-MEL-5, PLX4720 - 2 uM, ligand 100 ng/ml) was 1.31 and the “ability of recombinant RTK ligand” value ([1]; SK-MEL-28, PD184352 - 1 uM, ligand 0.4 ng/ml) was 1.10. For the same substance, the “ability of recombinant RTK ligand” value ([1]; SK-MEL-28, PD184352 - 1 uM, ligand 1.6 ng/ml) was 1.02, the “ability of recombinant RTK ligand” value ([1]; SK-MEL-28, PD184352 - 1 uM, ligand 6.25 ng/ml) was 1.05 and the “ability of recombinant RTK ligand” value ([1]; SK-MEL-28, PD184352 - 1 uM, ligand 25 ng/ml) was 0.99. The “ability of recombinant RTK ligand” value ([1]; SK-MEL-28, PD184352 - 1 uM, ligand 100 ng/ml) was 1.03, the “ability of recombinant RTK ligand” value ([1]; SK-MEL-28, PLX4720 - 2 uM, ligand 0.4 ng/ml) was 1.03 and the “ability of recombinant RTK ligand” value ([1]; SK-MEL-28, PLX4720 - 2 uM, ligand 1.6 ng/ml) was 1.10. The “ability of recombinant RTK ligand” value ([1]; SK-MEL-28, PLX4720 - 2 uM, ligand 6.25 ng/ml) was 1.16, the “ability of recombinant RTK ligand” value ([1]; SK-MEL-28, PLX4720 - 2 uM, ligand 25 ng/ml) was 10.5 and the “ability of recombinant RTK ligand” value ([1]; SK-MEL-28, PLX4720 - 2 uM, ligand 100 ng/ml) was 1.13. The “ability of RTK ligand to confer primary resistance” value ([1]; six V600E BRAF melanoma cell lines, BRAFi (PLX4720) or MEKi (PD184352)) was “not shown to induce primary resistance” and the “re-activation of pERK/pAKT” value [2] was “reactivate only ERK”.
